# Values joined by “and” are separate entries in the source; they are usually repeats but may differ in a detail not shown here. Equal entries are not always repeated. Inconclusive results and toxic doses are left out.
# System: L1210 leukemia ip in BDF1 mice, survival T/C
# Experiment: NCI In Vivo Anticancer Drug Screen. Data for tumor model L1210 Leukemia (intraperitoneal) in B6D2F1 (BDF1) mice
# Settings: endpoint: mean survival time, higher = longer survival
# Method in brief: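 Survival endpoint. Drug-treated group vs vehicle group, expressed as T divided by C. Tumor passaged by transplantation.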
compound,measurement,setting,value
Nc1nc(=S)c2[nH]cnc2[nH]1,T/C,"dose: 0.04 mg/kg/injection, schedule: Q01DX Z (ip), vehicle: carboxymethylcellulose (CMC)",113 % of control
same,T/C,"dose: 0.06 mg/kg/injection, schedule: Q01DX009 (ip), vehicle: alkali diluted with saline",106 % of control and 108 % of control
same,T/C,"dose: 0.06 mg/kg/injection, schedule: Q01DX Z (ip), vehicle: carboxymethylcellulose (CMC)",105 % of control
same,T/C,"dose: 0.06 mg/kg/injection, schedule: Q#A X Z (ip), vehicle: saline",121 % of control
same,T/C,"dose: 0.09 mg/kg/injection, schedule: Q01DX Z (ip), vehicle: carboxymethylcellulose (CMC)",109 % of control
same,T/C,"dose: 0.12 mg/kg/injection, schedule: Q01DX009 (ip), vehicle: alkali diluted with saline",111 % of control
same,T/C,"dose: 0.13 mg/kg/injection, schedule: Q01DX Z (ip), vehicle: saline",111 % of control
same,T/C,"dose: 0.13 mg/kg/injection, schedule: Q01DX Z (sc), vehicle: saline",107 % of control
same,T/C,"dose: 0.14 mg/kg/injection, schedule: Q01DX Z (ip), vehicle: carboxymethylcellulose (CMC)",110 % of control
same,T/C,"dose: 0.22 mg/kg/injection, schedule: Q01DX Z (ip), vehicle: carboxymethylcellulose (CMC)",115 % of control
same,T/C,"dose: 0.22 mg/kg/injection, schedule: Q07DX003 (ip), vehicle: saline",113 % of control
same,T/C,"dose: 0.25 mg/kg/injection, schedule: Q01DX Z (sc), vehicle: saline",116 % of control
same,T/C,"dose: 0.33 mg/kg/injection, schedule: Q01DX015 (ip), vehicle: alkali diluted with saline",102 % of control
same,T/C,"dose: 0.33 mg/kg/injection, schedule: Q01DX Z (ip), vehicle: carboxymethylcellulose (CMC)",119 % of control
same,T/C,"dose: 0.37 mg/kg/injection, schedule: Q03DX006 (ip), vehicle: saline",114 % of control
same,T/C,"dose: 0.43 mg/kg/injection, schedule: Q01DX009 (ip), vehicle: alkali diluted with saline",152 % of control
same,T/C,"dose: 0.44 mg/kg/injection, schedule: Q07DX003 (ip), vehicle: saline",122 % of control
same,T/C,"dose: 0.5 mg/kg/injection, schedule: Q01DX006 (iv), vehicle: saline",106 % of control
same,T/C,"dose: 0.5 mg/kg/injection, schedule: Q01DX Z (im), vehicle: saline",109 % of control
same,T/C,"dose: 0.5 mg/kg/injection, schedule: Q01DX Z (ip), vehicle: carboxymethylcellulose (CMC)",111 % of control
same,T/C,"dose: 0.5 mg/kg/injection, schedule: Q01DX Z (oral), vehicle: saline",113 % of control
same,T/C,"dose: 0.55 mg/kg/injection, schedule: Q01DX015 (ip), vehicle: alkali diluted with saline",151 % of control
same,T/C,"dose: 0.55 mg/kg/injection, schedule: Q## X015 (ip), vehicle: alkali diluted with saline",151 % of control
same,T/C,"dose: 0.75 mg/kg/injection, schedule: Q03DX006 (ip), vehicle: saline",118 % of control
same,T/C,"dose: 0.88 mg/kg/injection, schedule: Q01DX001 (ip), vehicle: saline",115 % of control
same,T/C,"dose: 0.88 mg/kg/injection, schedule: Q03HX016 (ip), vehicle: alkali diluted with saline",150 % of control
same,T/C,"dose: 0.88 mg/kg/injection, schedule: Q03HX024 (ip), vehicle: alkali diluted with saline",152 % of control
same,T/C,"dose: 0.9 mg/kg/injection, schedule: Q01DX015 (ip), vehicle: alkali diluted with saline",152 % of control
same,T/C,"dose: 1.0 mg/kg/injection, schedule: Q01DX006 (iv), vehicle: saline",112 % of control
same,T/C,"dose: 1.0 mg/kg/injection, schedule: Q01DX Z (ip), vehicle: carboxymethylcellulose (CMC)",152 % of control
same,T/C,"dose: 1.0 mg/kg/injection, schedule: Q01DX Z (oral), vehicle: saline",116 % of control
same,T/C,"dose: 1.2 mg/kg/injection, schedule: Q03HX032 (ip), vehicle: alkali diluted with saline",151 % of control and 152 % of control
same,T/C,"dose: 1.5 mg/kg/injection, schedule: Q03DX006 (ip), vehicle: saline",154 % of control
same,T/C,"dose: 1.75 mg/kg/injection, schedule: Q01DX001 (ip), vehicle: saline",109 % of control
same,T/C,"dose: 1.8 mg/kg/injection, schedule: Q04DX002 (ip), vehicle: alkali diluted with saline",110 % of control
same,T/C,"dose: 2.0 mg/kg/injection, schedule: Q01DX Z (sc), vehicle: saline",153 % of control
same,T/C,"dose: 2.5 mg/kg/injection, schedule: Q01DX010 (ip), vehicle: other",123 % of control
same,T/C,"dose: 3.5 mg/kg/injection, schedule: Q01DX001 (ip), vehicle: saline",109 % of control and 120 % of control
same,T/C,"dose: 3.5 mg/kg/injection, schedule: Q04DX008 (ip), vehicle: alkali diluted with saline",154 % of control
same,T/C,"dose: 3.7 mg/kg/injection, schedule: Q01DX Z (ip), vehicle: carboxymethylcellulose (CMC)",110 % of control
same,T/C,"dose: 4.0 mg/kg/injection, schedule: Q01DX Z (im), vehicle: saline",119 % of control
same,T/C,"dose: 4.0 mg/kg/injection, schedule: Q01DX Z (ip), vehicle: carboxymethylcellulose (CMC)",93 % of control
same,T/C,"dose: 4.0 mg/kg/injection, schedule: Q01DX Z (sc), vehicle: saline",106 % of control
same,T/C,"dose: 5.0 mg/kg/injection, schedule: Q01DX010 (ip), vehicle: other",98 % of control and 104 % of control
same,T/C,"dose: 5.3 mg/kg/injection, schedule: Q04DX012 (ip), vehicle: alkali diluted with saline",153 % of control
